Read-outs that look alike come from different tables or passages of the source.
Experiments:
[1] = target: T1, human recombinant histamine H2 receptor (Homo sapiens, UniProt P25021); assay: Histamine H2 radioligand binding ([125I]Aminopotentidine)
T1 construct: expressed in transfected cells; host or cells: CHO-K1 cells
Method in brief: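 Membranes of CHO-K1 cells expressing human H2 receptor incubated with 0.1 nM [125I]aminopotentidine, 120 min, 25 °C, 50 mM phosphate pH 7.4; nonspecific binding defined with 3 μM tiotidine.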

[2] = target: T2, human recombinant adrenergic α2B receptor (Homo sapiens, UniProt P18089); assay: Adrenergic α2B radioligand binding ([3H]Rauwolscine)
T2 construct: expressed in transfected cells; host or cells: CHO-K1 cells
T2 sequence (P18089 1-450): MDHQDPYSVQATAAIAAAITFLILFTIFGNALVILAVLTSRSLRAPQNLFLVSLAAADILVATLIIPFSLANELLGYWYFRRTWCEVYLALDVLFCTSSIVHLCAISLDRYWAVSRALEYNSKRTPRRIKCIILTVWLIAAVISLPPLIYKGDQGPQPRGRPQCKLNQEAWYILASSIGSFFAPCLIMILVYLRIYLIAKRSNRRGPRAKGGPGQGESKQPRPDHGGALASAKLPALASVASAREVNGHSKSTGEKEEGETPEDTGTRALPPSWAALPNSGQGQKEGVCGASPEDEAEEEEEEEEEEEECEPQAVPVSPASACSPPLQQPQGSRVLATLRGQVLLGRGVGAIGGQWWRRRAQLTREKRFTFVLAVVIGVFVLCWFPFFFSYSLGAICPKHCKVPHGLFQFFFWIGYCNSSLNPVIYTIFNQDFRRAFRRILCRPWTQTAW
Description: To evaluate in radioligand binding assays the activity of compounds of the invention, human recombinant adrenergic α2B receptor expressed in Chinese hamster ovary (CHO-K1) cells (Uhlen S et al. Eur J. Pharmacol. 343(1):93, 1998) in a modified Tris-HCl buffer (50 mM Tris-HCl, pH 7.4, 12.5 mM MgCl2, 1 mM EDTA, 0.2% BSA) was used. Compounds of the invention were incubated with 2.5 nM [^3H]Rauwolscine for 60 minutes at 25° C. Non-specific binding was estimated in the presence of 10 μM Prozosin. Receptor proteins were filtered and washed, the filters were then counted to determine [^3H]Rauwolscine specifically bound. Compounds were screened at 1 μM or lower, using 1% DMSO as vehicle. Biochemical assay results are presented as the percent inhibition of specific binding in Table 4.

[3] = target: T3, human recombinant adrenergic α2A receptor (Homo sapiens, UniProt P08913); assay: Adrenergic α2A radioligand binding ([3H]MK-912)
T3 construct: expressed in transfected cells; host or cells: insect Sf9 cells
T3 sequence (P08913 1-465): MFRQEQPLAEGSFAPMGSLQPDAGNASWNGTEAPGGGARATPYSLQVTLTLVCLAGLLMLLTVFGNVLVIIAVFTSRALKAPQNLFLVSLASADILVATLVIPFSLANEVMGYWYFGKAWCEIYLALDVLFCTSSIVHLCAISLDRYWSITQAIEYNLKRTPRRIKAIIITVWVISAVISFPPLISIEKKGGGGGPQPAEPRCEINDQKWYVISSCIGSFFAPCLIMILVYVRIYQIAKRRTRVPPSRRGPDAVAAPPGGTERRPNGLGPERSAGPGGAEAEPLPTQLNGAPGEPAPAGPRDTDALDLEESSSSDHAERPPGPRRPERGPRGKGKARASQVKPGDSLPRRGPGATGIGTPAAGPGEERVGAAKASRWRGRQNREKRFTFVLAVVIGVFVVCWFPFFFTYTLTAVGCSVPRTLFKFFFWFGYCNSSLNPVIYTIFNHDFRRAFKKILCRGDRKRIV
Description: To evaluate in radioligand binding assays the activity of compounds of the invention, human recombinant adrenergic α2A receptor expressed in insect Sf9 cells (Uhlen S et al. J Pharmacol Exp Ther. 271:1558, 1994) in a modified Tris-HCl buffer (50 mM Tris-HCl, pH 7.4, 12.5 mM MgCl2, 2 mM EDTA) was used. Compounds of invention were incubated with 1 nM [^3H]MK-912 for 60 minutes at 25° C. MK912 is (2S-trans)-1,3,4,5′,6,6′,7,12b-octahydro-1′,3′-dimethyl-spiro[2H-benzofuro[2,3-a]quinolizine-2,4′(1′H)-pyrimidin]-2′(3′H)-one hydrochloride Non-specific binding was estimated in the presence of 10 μM WB-4101 (2-(2,6-Dimethoxyphenoxyethyl)aminomethyl-1,4-benzodioxane hydrochloride). Receptor proteins were filtered and washed, the filters were then counted to determine [^3H]MK-912 specifically bound. Compounds were screened at 1 μM or lower, using 1% DMSO as vehicle. Biochemical assay results are presented as the percent inhibition of specific binding in Table 4.

[4] = target: T4, human recombinant serotonin (5-Hydroxytryptamine) 5-HT2C receptor (Homo sapiens, UniProt P28335); assay: Serotonin 5-HT2C radioligand binding ([3H]Mesulergine)
T4 construct: expressed in transfected cells; host or cells: CHO-K1 cells
T4 sequence (P28335 33-458): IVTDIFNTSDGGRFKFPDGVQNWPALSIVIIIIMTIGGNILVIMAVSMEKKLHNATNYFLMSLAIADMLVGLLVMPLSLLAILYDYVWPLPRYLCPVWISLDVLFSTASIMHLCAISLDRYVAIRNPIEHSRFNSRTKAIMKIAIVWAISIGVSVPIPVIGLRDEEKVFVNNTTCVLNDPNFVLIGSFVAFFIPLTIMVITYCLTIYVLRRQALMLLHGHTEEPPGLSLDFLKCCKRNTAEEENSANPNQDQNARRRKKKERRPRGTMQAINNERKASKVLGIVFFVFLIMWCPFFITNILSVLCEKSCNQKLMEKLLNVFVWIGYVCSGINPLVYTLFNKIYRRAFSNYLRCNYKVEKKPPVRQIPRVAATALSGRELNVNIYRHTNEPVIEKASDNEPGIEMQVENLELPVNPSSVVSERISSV
Description: Compounds of the invention were incubated with 1 nM [^3H]Mesulergine for 60 minutes at 25° C. Non-specific binding was estimated in the presence of 1 μM Mianserin. Receptor proteins were filtered and washed, the filters were then counted to determine [^3H]Mesulergine specifically bound. […] Biochemical assay results are presented as the percent inhibition of specific binding in Table 5.

[5] = 1 μM, inhibition of specific [125I]Aminopotentidine binding, read-out: Binding data (Percentage Inhibition) Histamine Binding (1 μM) H2
[6] = 1 h, read-out: Percent Inhibition of ligand binding Adrenergic (1 μM ligand conc.) α2B
[7] = 1 h, read-out: Percent Inhibition of ligand binding Adrenergic (1 μM ligand conc.) α2A
[8] = 1 h, read-out: Percent Inhibition of ligand binding Serotonin (1 μM ligand concentration) 5-HT2C

T1 sequence (P25021 whole entry): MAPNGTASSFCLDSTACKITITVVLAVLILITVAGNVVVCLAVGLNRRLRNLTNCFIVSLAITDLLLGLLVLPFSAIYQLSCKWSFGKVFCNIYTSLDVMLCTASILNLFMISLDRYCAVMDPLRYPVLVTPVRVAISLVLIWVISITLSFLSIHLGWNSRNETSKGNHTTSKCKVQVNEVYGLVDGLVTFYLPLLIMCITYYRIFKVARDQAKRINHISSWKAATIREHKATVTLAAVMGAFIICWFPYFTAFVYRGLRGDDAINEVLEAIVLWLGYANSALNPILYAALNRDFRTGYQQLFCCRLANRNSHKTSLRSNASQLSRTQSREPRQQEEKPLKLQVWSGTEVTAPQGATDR

Row | SMILES | inhibition at 1 µM [1, 5] [%] | inhibition at 1 µM [2, 6] [%] | inhibition at 1 µM [3, 7] [%] | inhibition at 1 µM [4, 8] [%] | inhibition at 1 µM ([1]; compound concentration 1 μM, read-out: Percentage inhibition of ligand binding to H2 receptor) [%] | inhibition at 1 µM ([2]; compound concentration 1 μM, read-out: Percentage inhibition of ligand binding to Adrenergic α2B receptor) [%] | inhibition at 1 µM ([3]; compound concentration 1 μM, read-out: Percentage inhibition of ligand binding to Adrenergic α2A receptor) [%] | inhibition at 0.003 µM ([4]; compound concentration 3 nM, read-out: Percentage inhibition of ligand binding to 5-HT2C receptor) [%] | inhibition at 0.01 µM ([4]; compound concentration 10 nM, read-out: Percentage inhibition of ligand binding to 5-HT2C receptor) [%] | inhibition at 0.03 µM ([4]; compound concentration 0.03 μM, read-out: Percentage inhibition of ligand binding to 5-HT2C receptor) [%] | inhibition at 0.1 µM ([4]; compound concentration 0.1 μM, read-out: Percentage inhibition of ligand binding to 5-HT2C receptor) [%] | inhibition at 0.3 µM ([4]; compound concentration 0.3 μM, read-out: Percentage inhibition of ligand binding to 5-HT2C receptor) [%] | inhibition at 1 µM ([4]; compound concentration 1 μM, read-out: Percentage inhibition of ligand binding to 5-HT2C receptor) [%]
1 | CCC1c2c(c3cc(Cl)ccc3n2CCc2ccc(F)cc2)CCN1C (stereo not shown) [Compound 78] | 33 | 102 | 93 | 101 |  |  |  |  |  |  |  |  | 
2 | CN1CCc2c(n(CC(=O)N3CCNCC3)c3ccc(Cl)cc23)C1 [Compound 55, 2-(6-chloro-2-methyl-3,4-dihydro-1H-pyrido[3,4-b]indol-9(2H)-yl)-1-(piperazin-1-yl)ethanone] | 2 | -21 | 10 | 13 |  |  |  |  |  |  |  |  | 
3 | Cc1ccc(C(O)Cn2c3c(c4cc(C)ccc42)CCN(C)C3)cc1 (stereo not shown) [Compound 72] | 19 | 105 | 93 | 89 |  |  |  |  |  |  |  |  | 
4 | CCC1c2c(c3cc(C)ccc3n2C(=O)Cc2ccc(F)cc2)CCN1C (stereo not shown) [Compound 159] | 20 | 78 | 71 | 103 |  |  |  |  |  |  |  |  | 
5 | CN1CCc2c(n(CC(O)c3ccccc3F)c3ccc(Cl)cc23)C1 (stereo not shown) [Compound 59, 2-(6-chloro-2-methyl-3,4-dihydro-1H-pyrido[3,4-b]indol-9(2H)-yl)-1-(2-fluorophenyl)ethanol] | 28 | 97 | 91 | 74 |  |  |  |  |  |  |  |  | 
6 | Cc1ccc2c(c1)c1c(n2CCc2ccc(C)nc2)CN(C)CC1 [Compound 1, 2,3,4,9-tetrahydro-2,6-dimethyl-9-(2-(6-methylpyridin-3-yl)ethyl)-1H-pyrido[3,4-b]indole] | 5 | 99 | 74 | 25 |  |  |  |  |  |  |  |  | 
7 | COc1ccc(C(O)Cn2c3c(c4cc(Cl)ccc42)CCN(C)C3)cc1OC (stereo not shown) [Compound 70] | 1 | 77 | 81 | 63 |  |  |  |  |  |  |  |  | 
8 | CN1CCc2c(n(CC(O)c3ccccc3)c3ccc(Cl)cc23)C1 (stereo not shown) [Compound 71] | 11 | 95 | 88 | 81 |  |  |  |  |  |  |  |  | 
9 | CN1CCc2c(n(CC(=O)NC3CCCCC3)c3ccc(Cl)cc23)C1 [Compound 17, 2-(6-chloro-1,2,3,4-tetrahydro-2-methylpyvrido[3,4-b]indol-9-yl)-N-cyclohexylacetamide] | -6 | 14 | 17 | 3 |  |  |  |  |  |  |  |  | 
10 | CN1CCc2c(n(CC(=O)O)c3ccc(Cl)cc23)C1 [Compound 52, 2-(6-chloro-1,2,3,4-tetrahydro-2-methylpyrido[3,4-b]indol-9-yl)acetic acid] | -5 | 9 | 4 | -4 |  |  |  |  |  |  |  |  | 
11 | CN1CCc2c(n(CC(=O)Nc3ccc(F)cc3)c3ccc(Cl)cc23)C1 [Compound 15, 2-(6-chloro-1,2,3,4-tetrahydro-2-methylpyrido[3,4-b]indol-9-yl)-N-(4-fluorophenyl)acetamide] | -3 | 8 | 15 | 15 |  |  |  |  |  |  |  |  | 
12 | C/C(=C\n1c2c(c3cc(C)ccc31)CCN(C)C2)c1ccc(F)cc1 [Compound 91, (E)-9-(2-(4-fluorophenyl)prop-1-enyl)-2,6-dimethyl-2,3,4,9-tetrahydro-1H-pyrido[3,4-b]indole] | 68 | 94 | 95 | 104 | 68 | 94 | 95 | 22 | 58 | 77 | 87 | 93 | 104
13 | Cc1ccc2c(c1)c1c(n2CC(O)c2ccccc2F)CN(C)CC1 (stereo not shown) [Compound 60, 2-(2,6-dimethyl-3,4-dihydro-1H-pyrido[3,4-b]indol-9(2H)-yl)-1-(2-fluorophenyl)ethanol] | 15 | -5 | 79 | 5 |  |  |  |  |  |  |  |  | 
14 | Cc1ccc2c(c1)c1c(n2CC(=O)N2CCCCC2)CN(C)CC1 [Compound 57, 2-(2,6-dimethyl-3,4-dihydro-1H-pyrido[3,4-b]indol-9(2H)-yl)-1-(piperidin-1-yl)ethanone] | 10 | 29 | 4 | 14 |  |  |  |  |  |  |  |  | 
15 | CC(C)CCN(C)C(=O)Cn1c2c(c3cc(Cl)ccc31)CCN(C)C2 [Compound 14, 2-(6-chloro-1,2,3,4-tetrahydro-2-methylpyrido[3,4-b]indol-9-yl)-N-isopentyl-N-methylacetamide] | 12 | -16 | 19 | 20 |  |  |  |  |  |  |  |  | 
16 | C/C(=C\n1c2c(c3cc(C)ccc31)CCN(C)C2C)c1ccc(Cl)cc1 (stereo not shown) [Compound 161, 9-(2-(4-chlorophenyl)prop-1-enyl)-1,2,6-trimethyl-2,3,4,9-tetrahydro-1H-pyrido[3,4-b]indole] | 82 | 92 | 52 | 99 |  |  |  |  |  |  |  |  | 
